According to US20100075957A1, “AMINODIHYDROTHIAZINE DERIVATIVES SUBSTITUTED WITH A CYCLIC GROUP” (SHIONOGI & CO., LTD., priority 2007, published 2010):

These compounds were tested against T1, Recombinant human BACE-1 (Homo sapiens, UniProt P56817) (assay: Assay of β-secretase-inhibiting activity). Settings: Recombinant human BACE-1 7.4 nM, substrate peptide 18 nM, pH 5.0, 30° C., 3 hours; time-resolved fluorescence ratio 665/620; read-out: IC50 values (50% inhibitory concentration against the enzymatic activity).
T1 construct: purchased R&D Systems
T1 sequence (P56817 46-501): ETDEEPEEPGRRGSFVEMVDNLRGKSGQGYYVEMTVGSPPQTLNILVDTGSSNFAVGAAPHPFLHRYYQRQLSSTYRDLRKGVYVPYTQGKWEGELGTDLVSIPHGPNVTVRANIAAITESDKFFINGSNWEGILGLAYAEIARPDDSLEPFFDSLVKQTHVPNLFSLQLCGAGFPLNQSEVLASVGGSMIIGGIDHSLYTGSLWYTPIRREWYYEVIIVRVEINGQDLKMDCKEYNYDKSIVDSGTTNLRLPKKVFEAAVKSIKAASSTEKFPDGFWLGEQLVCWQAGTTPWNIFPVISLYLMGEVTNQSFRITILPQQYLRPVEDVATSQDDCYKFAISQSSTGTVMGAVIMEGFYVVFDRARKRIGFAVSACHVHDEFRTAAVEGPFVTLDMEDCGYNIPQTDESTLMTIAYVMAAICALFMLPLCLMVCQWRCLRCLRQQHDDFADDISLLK
Type: biochemical
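Further: substrate is a peptide carrying biotin and europium cryptate, after the enzyme reaction, Streptavidin-XL665 is added and incubated 1 h at 30 °C before fluorescence reading.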

| Compound | IC50 [nM] |
| --- | --- |
| CCc1cnc(C(=O)Nc2cccc([C@]3(C)CCSC(N)=N3)c2)cn1 [Compound 63] | ≤ 1000 |
| COc1cnc(C(=O)Nc2ccnc([C@]3(C)CC(C)(C)SC(N)=N3)c2)c(N)n1 [Compound 688] | ≤ 1000 |
| CC#CCNc1cnc(C(=O)Nc2cccc([C@]3(C)CCSC(N)=N3)c2)cn1 [Compound 123] | ≤ 1000 |
| CC1(C)C[C@@](C)(c2cc(NC(=O)c3cnc(OCCF)cn3)ccn2)N=C(N)S1 [Compound 658] | ≤ 1000 |
| C[C@@]1(c2cc(NC(=O)c3ccc(Cl)nn3)ccc2F)CCSC(N)=N1 [Compound 490] | ≤ 1000 |
| C[C@@]1(c2cc(NC(=O)c3cnc(/C=C/CO)cn3)ccc2F)CCSC(N)=N1 [Compound 162] | ≤ 1000 |
| Cc1cc(C(=O)Nc2ccc(F)c([C@]3(C)CCSC(N)=N3)c2)oc1C [Compound 529] | ≤ 1000 |
| COCc1ccc(C(=O)Nc2ccc(F)c([C@]3(C)CCSC(N)=N3)c2)o1 [Compound 522] | ≤ 1000 |
